Literature values in patent publication US8536169B2, “Compounds” (Glaxo Group Limited, priority 2008, dated 2013).

Columns and labels:
neutrophils [1] = settings: treatment of neutrophils; Thelen et al. 1994
neutrophils [2] = system: neutrophils
Class I PI3-kinases = settings: read-out: IC50 against each of the various Class I PI3-kinases
neutrophils [3] = system: neutrophils; remark: listed apart in the source

Row | Compound | fMLP-induced respiratory burst response (neutrophils [1]) | superoxide release (neutrophils [2]) | IC50 (Class I PI3-kinases) [nM] | neutrophil migration (neutrophils [3]) | inhibitory activity on phospholipases (phospholipases)
1 | wortmannin | prevents | block | 1 to 10 | block | 
2 | O=c1cc(N2CCOCC2)oc2c(-c3ccccc3)cccc12 [LY294002] |  | block |  | block | some inhibitory activity
